Assay results published in patent publication USRE49022E1, “Insecticidal compounds” (SYNGENTA PARTICIPATIONS AG, priority 2013, dated 2022).

Columns and labels:
Type in all cases: in vivo
[1] = tested on: Diabrotica balteata (Corn Root Worm); assay: Diabrotica balteata, artificial diet MTP test; details: 120 h, 200 ppm (concentration in well 18 ppm), L2 larvae, larval mortality after 5 days
Method: A 24-well microtiter plate (MTP) with artificial diet was treated with test solutions at an application rate of 200 ppm (concentration in well 18 ppm) by pipetting. After drying, the MTP's were infested with L2 larvae (6-10 per well). After an incubation period of 5 days, samples were checked for larval mortality The following compound gave at least 80% control of Diabrotica balteata: 1, 2, 3, 4, 5, 6, 7, 8, 9, 10, 11, 12, 13, 14, 15, 16, 17, 18, 19, 20, 21, 22, 23, 24, 25, 26, 27, 28, 29, 30, 31, 32, 33, 34, 35, 36, 37, 38, 39, 40, 41, 42, 43, 44, 45, 46, 47, 48, 49, 50, 51.

[2] = tested on: Myzus persicae (Green Peach Aphid); assay: Myzus persicae, sunflower leaf disc spray test; details: foliar, 144 h, sprayed sunflower leaf discs, aphid population of mixed ages, mortality after 6 DAT
Method: Sunflower leaf discs were placed on agar in a 24-well microtiter plate and sprayed with test solutions at an application rate of 200 ppm. After drying, the leaf discs were infested with an aphid population of mixed ages. After an incubation period of 6 DAT, samples were checked for mortality.

[3] = tested on: Myzus persicae (Green Peach Aphid); assay: Myzus persicae, sucrose solution / Parafilm test; details: 120 h, mixed with sucrose solution under Parafilm, mortality 5 days after infestation
From the text: Test compounds were applied by pipette into 24 well plates and mixed with Sucrose solution. Application rate: 12.5 ppm. The plates were closed with a stretched Parafilm. A plastic stencil with 24 holes is placed onto the plate and infested pea seedlings were placed directly on the Parafilm. The infested plate is closed with a gel blotting paper and another plastic stencil and then turned upside down. 5 days after infestation the samples were checked on mortality.

[4] = tested on: Plutella xylostella (Diamond Back Moth); assay: Plutella xylostella, artificial diet MTP test; details: 144 h, 200 ppm (concentration in well 18 ppm), L2 larvae, 6 days
Method: 24-well microtiter plate (MTP) with artificial diet was treated with test solutions at an application rate of 200 ppm (concentration in well 18 ppm) by pipetting. After drying, the MTP's were infested with L2 larvae (7-12 per well). After an incubation period of 6 days, samples were checked for larval mortality and growth regulation. The following compound gave at least 80% mortality of Plutella xylostella: 1, 2, 3, 4, 5, 6, 7, 8, 9, 10, 11, 12, 13, 14, 15, 16, 17, 18, 19, 20, 21, 22, 23, 24, 25, 26, 27, 28, 29, 30, 31, 32, 33, 34, 35, 36, 37, 38, 39, 40, 41, 42, 43, 44, 45, 46, 47, 48, 49, 50.

[5] = tested on: Spodoptera littoralis (Egyptian Cotton Leafworm); assay: Spodoptera littoralis, cotton leaf disc spray test; details: foliar, 72 h, sprayed cotton leaf discs, L1 larvae, 3 days after treatment
From the text: Cotton leaf discs were placed on agar in a 24-well microtiter plate and sprayed with test solutions at an application rate of 200 ppm. After drying, the leaf discs were infested with 5 L1 larvae. The samples were checked for mortality 3 days after treatment (DAT).

[6] = tested on: Spodoptera littoralis (Egyptian Cotton Leaf Worm); assay: Spodoptera littoralis, agar / lettuce root uptake test; details: 144 h, mixed with agar, uptake by lettuce roots, mortality 6 days after infestation
From the text: Test compounds were applied by pipette into 24 well plates and mixed with agar. Application rate: 12.5 ppm. Lettuce seeds were placed on the agar and the multi well plate is closed by another plate which contains also agar. After 7 days the roots have absorbed the compound and the lettuce has grown into the lid plate. The lettuce leafs were now cut off into the lid plate. Spodoptera eggs were pipetted through a plastic stencil on a humid gel blotting paper and the plate closed with it. The samples are checked for mortality 6 days after infestation.

[7] = tested on: Tetranychus urticae (Two-Spotted Spider Mite); assay: Tetranychus urticae, bean leaf disc spray test; details: foliar, 192 h, sprayed bean leaf discs, mite populations of mixed ages, 8 days
From the text: Bean leaf discs on agar in 24-well microtiter plates were sprayed with test solutions at an application rate of 200 ppm. After drying, the leaf discs are infested with mite populations of mixed ages. 8 days later, discs were checked for mortality.

[8] = tested on: Thrips tabaci (Onion Thrips); assay: Thrips tabaci, sunflower leaf disc spray test; details: foliar, 168 h, sprayed sunflower leaf discs, mortality after 7 days

CCc1cc(C(F)(C(F)(F)F)C(F)(F)Cl)cc(Br)c1NC(=O)c1cccc(NC(=O)c2cccnc2)c1OC (centres unmarked) [Compound 21]
≥ 80%: pest or weed control at 200 ppm [1] | pest or weed control at 200 ppm [2] | pest or weed control at 12.5 ppm [3] | mortality at 200 ppm [4] | mortality at 200 ppm [5] | pest or weed control at 12.5 ppm [6] | mortality at 200 ppm [7] | pest or weed control at 200 ppm [8]

O=C(Nc1cccc(C(=O)Nc2c(Br)cc(C(F)(C(F)(F)F)C(F)(F)Cl)cc2OC(F)F)c1F)c1cc[n+]([O-])cc1 (centres unmarked) [Compound 23]
≥ 80%: pest or weed control at 200 ppm [1] | pest or weed control at 200 ppm [2] | pest or weed control at 12.5 ppm [3] | mortality at 200 ppm [4] | mortality at 200 ppm [5] | pest or weed control at 12.5 ppm [6] | mortality at 200 ppm [7] | pest or weed control at 200 ppm [8]

O=C(Nc1cccc(C(=O)Nc2c(Br)cc(C(F)(C(F)(F)F)C(F)(F)Cl)cc2OC(F)F)c1F)c1ccc[n+]([O-])c1 (centres unmarked) [Compound 24]
≥ 80%: pest or weed control at 200 ppm [1] | pest or weed control at 200 ppm [2] | pest or weed control at 12.5 ppm [3] | mortality at 200 ppm [4] | mortality at 200 ppm [5] | pest or weed control at 12.5 ppm [6] | mortality at 200 ppm [7] | pest or weed control at 200 ppm [8]

COc1c(NC(=O)c2cc[n+]([O-])cc2)cccc1C(=O)Nc1c(Br)cc(C(F)(C(F)(F)F)C(F)(F)Cl)cc1OC(F)F (centres unmarked) [Compound 25]
≥ 80%: pest or weed control at 200 ppm [1] | pest or weed control at 200 ppm [2] | pest or weed control at 12.5 ppm [3] | mortality at 200 ppm [4] | mortality at 200 ppm [5] | pest or weed control at 12.5 ppm [6] | mortality at 200 ppm [7] | pest or weed control at 200 ppm [8]

COc1c(NC(=O)c2ccc[n+]([O-])c2)cccc1C(=O)Nc1c(Br)cc(C(F)(C(F)(F)F)C(F)(F)Cl)cc1OC(F)F (centres unmarked) [Compound 26]
≥ 80%: pest or weed control at 200 ppm [1] | pest or weed control at 200 ppm [2] | pest or weed control at 12.5 ppm [3] | mortality at 200 ppm [4] | mortality at 200 ppm [5] | pest or weed control at 12.5 ppm [6] | mortality at 200 ppm [7] | pest or weed control at 200 ppm [8]

CCN(C(=O)c1ccc(C#N)cc1)c1cccc(C(=O)Nc2c(Br)cc(C(F)(C(F)(F)F)C(F)(F)Cl)cc2OC(F)F)c1F (centres unmarked) [Compound 31]
≥ 80%: pest or weed control at 200 ppm [1] | pest or weed control at 200 ppm [2] | pest or weed control at 12.5 ppm [3] | mortality at 200 ppm [4] | mortality at 200 ppm [5] | pest or weed control at 12.5 ppm [6] | mortality at 200 ppm [7] | pest or weed control at 200 ppm [8]

CCN(C(=O)c1ccc(C#N)cc1)c1cccc(C(=O)Nc2c(Br)cc(C(F)(C(F)(F)F)C(F)(F)Cl)cc2OC(F)F)c1OC (centres unmarked) [Compound 32]
≥ 80%: pest or weed control at 200 ppm [1] | pest or weed control at 200 ppm [2] | pest or weed control at 12.5 ppm [3] | mortality at 200 ppm [4] | mortality at 200 ppm [5] | pest or weed control at 12.5 ppm [6] | mortality at 200 ppm [7] | pest or weed control at 200 ppm [8]

CCN(C(=O)c1ccncc1)c1cccc(C(=O)Nc2c(Br)cc(C(F)(C(F)(F)F)C(F)(F)Cl)cc2OC(F)F)c1F (centres unmarked) [Compound 35]
≥ 80%: pest or weed control at 200 ppm [1] | pest or weed control at 200 ppm [2] | pest or weed control at 12.5 ppm [3] | mortality at 200 ppm [4] | mortality at 200 ppm [5] | pest or weed control at 12.5 ppm [6] | mortality at 200 ppm [7] | pest or weed control at 200 ppm [8]

CCN(C(=O)c1ccncc1)c1cccc(C(=O)Nc2c(Br)cc(C(F)(C(F)(F)F)C(F)(F)Cl)cc2OC(F)F)c1OC (centres unmarked) [Compound 36, N-[3-[[2-bromo-4-[1-[chloro(difluoro)methyl]-1,2,2,2-tetrafluoro-ethyl]-6-(difluoromethoxy)phenyl]carbamoyl]-2-methoxy-phenyl]-N-ethyl-pyridine-4-carboxamide]
≥ 80%: pest or weed control at 200 ppm [1] | pest or weed control at 200 ppm [2] | pest or weed control at 12.5 ppm [3] | mortality at 200 ppm [4] | mortality at 200 ppm [5] | pest or weed control at 12.5 ppm [6] | mortality at 200 ppm [7] | pest or weed control at 200 ppm [8]

CCN(C(=O)c1cccnc1)c1cccc(C(=O)Nc2c(Br)cc(C(F)(C(F)(F)F)C(F)(F)Cl)cc2OC(F)F)c1F (centres unmarked) [Compound 39]
≥ 80%: pest or weed control at 200 ppm [1] | pest or weed control at 200 ppm [2] | pest or weed control at 12.5 ppm [3] | mortality at 200 ppm [4] | mortality at 200 ppm [5] | pest or weed control at 12.5 ppm [6] | mortality at 200 ppm [7] | pest or weed control at 200 ppm [8]

CCN(C(=O)c1cccnc1)c1cccc(C(=O)Nc2c(Br)cc(C(F)(C(F)(F)F)C(F)(F)Cl)cc2OC(F)F)c1OC (centres unmarked) [Compound 40]
≥ 80%: pest or weed control at 200 ppm [1] | pest or weed control at 200 ppm [2] | pest or weed control at 12.5 ppm [3] | mortality at 200 ppm [4] | mortality at 200 ppm [5] | pest or weed control at 12.5 ppm [6] | mortality at 200 ppm [7] | pest or weed control at 200 ppm [8]

CCc1cc(C(F)(C(F)(F)F)C(F)(F)Cl)cc(Br)c1NC(=O)c1cccc(N(CC)C(=O)c2cccnc2)c1F (centres unmarked) [Compound 41]
≥ 80%: pest or weed control at 200 ppm [1] | pest or weed control at 200 ppm [2] | pest or weed control at 12.5 ppm [3] | mortality at 200 ppm [4] | mortality at 200 ppm [5] | pest or weed control at 12.5 ppm [6] | mortality at 200 ppm [7] | pest or weed control at 200 ppm [8]

CCN(C(=O)c1cc[n+]([O-])cc1)c1cccc(C(=O)Nc2c(Br)cc(C(F)(C(F)(F)F)C(F)(F)Cl)cc2OC(F)F)c1F (centres unmarked) [Compound 43]
≥ 80%: pest or weed control at 200 ppm [1] | pest or weed control at 200 ppm [2] | pest or weed control at 12.5 ppm [3] | mortality at 200 ppm [4] | mortality at 200 ppm [5] | pest or weed control at 12.5 ppm [6] | mortality at 200 ppm [7] | pest or weed control at 200 ppm [8]

CCN(C(=O)c1cc[n+]([O-])cc1)c1cccc(C(=O)Nc2c(Br)cc(C(F)(C(F)(F)F)C(F)(F)Cl)cc2OC(F)F)c1OC (centres unmarked) [Compound 44, N-[3-[[2-bromo-4-[1-[chloro(difluoro)methyl]-1,2,2,2-tetrafluoro-ethyl]-6-(difluoromethoxy)phenyl]carbamoyl]-2-methoxy-phenyl]-N-ethyl-1-oxido-pyridin-1-ium-4-carboxamide]
≥ 80%: pest or weed control at 200 ppm [1] | pest or weed control at 200 ppm [2] | pest or weed control at 12.5 ppm [3] | mortality at 200 ppm [4] | mortality at 200 ppm [5] | pest or weed control at 12.5 ppm [6] | mortality at 200 ppm [7] | pest or weed control at 200 ppm [8]

CCN(C(=O)c1ccc[n+]([O-])c1)c1cccc(C(=O)Nc2c(Br)cc(C(F)(C(F)(F)F)C(F)(F)Cl)cc2OC(F)F)c1F (centres unmarked) [Compound 47]
≥ 80%: pest or weed control at 200 ppm [1] | pest or weed control at 200 ppm [2] | pest or weed control at 12.5 ppm [3] | mortality at 200 ppm [4] | mortality at 200 ppm [5] | pest or weed control at 12.5 ppm [6] | mortality at 200 ppm [7] | pest or weed control at 200 ppm [8]

CCN(C(=O)c1ccc[n+]([O-])c1)c1cccc(C(=O)Nc2c(Br)cc(C(F)(C(F)(F)F)C(F)(F)Cl)cc2OC(F)F)c1OC (centres unmarked) [Compound 48]
≥ 80%: pest or weed control at 200 ppm [1] | pest or weed control at 200 ppm [2] | pest or weed control at 12.5 ppm [3] | mortality at 200 ppm [4] | mortality at 200 ppm [5] | pest or weed control at 12.5 ppm [6] | mortality at 200 ppm [7] | pest or weed control at 200 ppm [8]
